Results as given in ChEMBL document CHEMBL5038625, “Application of the dual-tail approach for the design and synthesis of novel Thiopyrimidine-Benzenesulfonamide hybrids as selective carbonic anhydrase inhibitors” (Eur J Med Chem, 2022).

Key:
[1] = system: Hs-578T; assay: Antiproliferative activity against human HS-578T cells assessed as cell growth inhibition at 10 uM incubated for 24 hrs by sulforhodamine B assay; assay type: functional; conditions: read-out: GI
[2] = system: HCT-15; assay: Antiproliferative activity against human HCT-15 cells assessed as cell growth inhibition at 10 uM incubated for 24 hrs by sulforhodamine B assay; assay type: functional; conditions: read-out: GI
[3] = system: UO-31; assay: Antiproliferative activity against human UO-31 cells assessed as cell growth inhibition at 10 uM incubated for 24 hrs by sulforhodamine B assay; assay type: functional; conditions: read-out: GI
[4] = system: NCI-H460; assay: Antiproliferative activity against human NCI-H460 cells assessed as cell growth inhibition at 10 uM incubated for 24 hrs by sulforhodamine B assay; assay type: functional; conditions: read-out: GI
[5] = system: SR; assay: Antiproliferative activity against human SR cells assessed as cell growth inhibition at 10 uM incubated for 24 hrs by sulforhodamine B assay; assay type: functional; conditions: read-out: GI
[6] = system: K562; assay: Antiproliferative activity against human K562 cells assessed as cell growth inhibition at 10 uM incubated for 24 hrs by sulforhodamine B assay; assay type: functional; conditions: read-out: GI
[7] = system: MCF7; assay: Antiproliferative activity against human MCF7 cells assessed as cell growth inhibition at 10 uM incubated for 24 hrs by sulforhodamine B assay; assay type: functional; conditions: read-out: GI
[8] = system: MDA-MB-435; assay: Antiproliferative activity against human MDA-MB-435 cells assessed as cell growth inhibition at 10 uM incubated for 24 hrs by sulforhodamine B assay; assay type: functional; conditions: read-out: GI
[9] = system: CAKI-1; assay: Antiproliferative activity against human CAKI-1 cells assessed as cell growth inhibition at 10 uM incubated for 24 hrs by sulforhodamine B assay; assay type: functional; conditions: read-out: GI
[10] = system: SF-295; assay: Antiproliferative activity against human SF-295 cells assessed as cell growth inhibition at 10 uM incubated for 24 hrs by sulforhodamine B assay; assay type: functional; conditions: read-out: GI
[11] = system: SW-620; assay: Antiproliferative activity against human SW-620 cells assessed as cell growth inhibition at 10 uM incubated for 24 hrs by sulforhodamine B assay; assay type: functional; conditions: read-out: GI
[12] = system: NCI/ADR-RES; assay: Antiproliferative activity against human NCI-ADR-RES cells assessed as cell growth inhibition at 10 uM incubated for 24 hrs by sulforhodamine B assay; assay type: functional; conditions: read-out: GI
[13] = system: OVCAR-3; assay: Antiproliferative activity against human OVCAR-3 cells assessed as cell growth inhibition at 10 uM incubated for 24 hrs by sulforhodamine B assay; assay type: functional; conditions: read-out: GI
[14] = system: M14; assay: Antiproliferative activity against human M14 cells assessed as cell growth inhibition at 10 uM incubated for 24 hrs by sulforhodamine B assay; assay type: functional; conditions: read-out: GI
[15] = system: PC-3; assay: Antiproliferative activity against human PC-3 cells assessed as cell growth inhibition at 10 uM incubated for 24 hrs by sulforhodamine B assay; assay type: functional; conditions: read-out: GI
[16] = system: T47D; assay: Antiproliferative activity against human T47D cells assessed as cell growth inhibition at 10 uM incubated for 24 hrs by sulforhodamine B assay; assay type: functional; conditions: read-out: GI
[17] = system: NCI-H23; assay: Antiproliferative activity against human NCI-H23 cells assessed as cell growth inhibition at 10 uM incubated for 24 hrs by sulforhodamine B assay; assay type: functional; conditions: read-out: GI
[18] = system: MDA-MB-468; assay: Antiproliferative activity against human MDA-MB-468 cells assessed as cell growth inhibition at 10 uM incubated for 24 hrs by sulforhodamine B assay; assay type: functional; conditions: read-out: GI
[19] = system: UACC-62; assay: Antiproliferative activity against human UACC-62 cells assessed as cell growth inhibition at 10 uM incubated for 24 hrs by sulforhodamine B assay; assay type: functional; conditions: read-out: GI
[20] = system: MOLT-4; assay: Antiproliferative activity against human MOLT-4 cells assessed as cell growth inhibition at 10 uM incubated for 24 hrs by sulforhodamine B assay; assay type: functional; conditions: read-out: GI
[21] = system: OVCAR-4; assay: Antiproliferative activity against human OVCAR-4 cells assessed as cell growth inhibition at 10 uM incubated for 24 hrs by sulforhodamine B assay; assay type: functional; conditions: read-out: GI
[22] = system: LOX IMVI; assay: Antiproliferative activity against human LOX IMVI cells assessed as cell growth inhibition at 10 uM incubated for 24 hrs by sulforhodamine B assay; assay type: functional; conditions: read-out: GI
[23] = system: HT-29; assay: Antiproliferative activity against human HT-29 cells assessed as cell growth inhibition at 10 uM incubated for 24 hrs by sulforhodamine B assay; assay type: functional; conditions: read-out: GI
[24] = system: SK-MEL-5; assay: Antiproliferative activity against human SK-MEL-5 cells assessed as cell growth inhibition at 10 uM incubated for 24 hrs by sulforhodamine B assay; assay type: functional; conditions: read-out: GI
[25] = system: EKVX; assay: Antiproliferative activity against human EKVX cells assessed as cell growth inhibition at 10 uM incubated for 24 hrs by sulforhodamine B assay; assay type: functional; conditions: read-out: GI
[26] = system: MDA-MB-231; assay: Antiproliferative activity against human MDA-MB-231 cells assessed as cell growth inhibition at 10 uM incubated for 24 hrs by sulforhodamine B assay; assay type: functional; conditions: read-out: GI
[27] = system: SN12C; assay: Antiproliferative activity against human SN12C cells assessed as cell growth inhibition at 10 uM incubated for 24 hrs by sulforhodamine B assay; assay type: functional; conditions: read-out: GI
[28] = system: NCI-H522; assay: Antiproliferative activity against human NCI-H522 cells assessed as cell growth inhibition at 10 uM incubated for 24 hrs by sulforhodamine B assay; assay type: functional; conditions: read-out: GI
[29] = system: SF-539; assay: Antiproliferative activity against human SF-539 cells assessed as cell growth inhibition at 10 uM incubated for 24 hrs by sulforhodamine B assay; assay type: functional; conditions: read-out: GI
[30] = system: CCRF-CEM; assay: Antiproliferative activity against human CCRF-CEM cells assessed as cell growth inhibition at 10 uM incubated for 24 hrs by sulforhodamine B assay; assay type: functional; conditions: read-out: GI
[31] = system: A498; assay: Antiproliferative activity against human A498 cells assessed as cell growth inhibition at 10 uM incubated for 24 hrs by sulforhodamine B assay; assay type: functional; conditions: read-out: GI
[32] = system: NCI-H226; assay: Antiproliferative activity against human NCI-H226 cells assessed as cell growth inhibition at 10 uM incubated for 24 hrs by sulforhodamine B assay; assay type: functional; conditions: read-out: GI
[33] = biological target: Carbonic anhydrase 9 (Homo sapiens, UniProt Q16790); assay: Inhibition of human CA9 preincubated for 15 mins by phenol red dye based stopped flow CO2 hydration assay
[34] = Antiproliferative activity against human […] cells assessed as cell growth inhibition at 10 uM incubated for 24 hrs by sulforhodamine B assay; assay type: functional; conditions: read-out: GI
[35] = system: IGROV-1; assay: Antiproliferative activity against human IGROV-1 cells assessed as cell growth inhibition at 10 uM incubated for 24 hrs by sulforhodamine B assay; assay type: functional; conditions: read-out: GI
[36] = system: DU-145; assay: Antiproliferative activity against human DU-145 cells assessed as cell growth inhibition at 10 uM incubated for 24 hrs by sulforhodamine B assay; assay type: functional; conditions: read-out: GI
[37] = system: OVCAR-8; assay: Antiproliferative activity against human OVCAR-8 cells assessed as cell growth inhibition at 10 uM incubated for 24 hrs by sulforhodamine B assay; assay type: functional; conditions: read-out: GI
[38] = system: RXF 393; assay: Antiproliferative activity against human RXF 393 cells assessed as cell growth inhibition at 10 uM incubated for 24 hrs by sulforhodamine B assay; assay type: functional; conditions: read-out: GI
[39] = system: COLO 205; assay: Antiproliferative activity against human COLO 205 cells assessed as cell growth inhibition at 10 uM incubated for 24 hrs by sulforhodamine B assay; assay type: functional; conditions: read-out: GI
[40] = system: SNB-75; assay: Antiproliferative activity against human SNB-75 cells assessed as cell growth inhibition at 10 uM incubated for 24 hrs by sulforhodamine B assay; assay type: functional; conditions: read-out: GI
[41] = system: A549; assay: Antiproliferative activity against human A549 cells assessed as cell growth inhibition at 10 uM incubated for 24 hrs by sulforhodamine B assay; assay type: functional; conditions: read-out: GI
[42] = system: ACHN; assay: Antiproliferative activity against human ACHN cells assessed as cell growth inhibition at 10 uM incubated for 24 hrs by sulforhodamine B assay; assay type: functional; conditions: read-out: GI
[43] = system: HL-60; assay: Antiproliferative activity against human HL-60 cells assessed as cell growth inhibition at 10 uM incubated for 24 hrs by sulforhodamine B assay; assay type: functional; conditions: read-out: GI
[44] = system: SNB-19; assay: Antiproliferative activity against human SNB-19 cells assessed as cell growth inhibition at 10 uM incubated for 24 hrs by sulforhodamine B assay; assay type: functional; conditions: read-out: GI
[45] = system: SF-268; assay: Antiproliferative activity against human SF-268 cells assessed as cell growth inhibition at 10 uM incubated for 24 hrs by sulforhodamine B assay; assay type: functional; conditions: read-out: GI
[46] = system: HCT-116; assay: Antiproliferative activity against human HCT-116 cells assessed as cell growth inhibition at 10 uM incubated for 24 hrs by sulforhodamine B assay; assay type: functional; conditions: read-out: GI
[47] = system: RPMI-8226; assay: Antiproliferative activity against human RPMI-8226 cells assessed as cell growth inhibition at 10 uM incubated for 24 hrs by sulforhodamine B assay; assay type: functional; conditions: read-out: GI
[48] = system: KM12; assay: Antiproliferative activity against human KM12 cells assessed as cell growth inhibition at 10 uM incubated for 24 hrs by sulforhodamine B assay; assay type: functional; conditions: read-out: GI
[49] = system: U-251; assay: Antiproliferative activity against human U-251 cells assessed as cell growth inhibition at 10 uM incubated for 24 hrs by sulforhodamine B assay; assay type: functional; conditions: read-out: GI

Structure (SMILES): COc1ccc(OC)c(-c2nc(SCC(=O)c3ccc(Br)cc3)nc(Nc3cccc(S(N)(=O)=O)c3)c2C#N)c1
- inhibition of growth at 10 µM [1]: 25.5%
- inhibition of growth at 10 µM [2]: 23.4%
- inhibition of growth at 10 µM [3]: 50.2%
- inhibition of growth at 10 µM [4]: 22.5%
- inhibition of growth at 10 µM [5]: 30.5%
- inhibition of growth at 10 µM [6]: 29.5%
- inhibition of growth at 10 µM [7]: 28.6%
- inhibition of growth at 10 µM [8]: 15.4%
- inhibition of growth at 10 µM [9]: 52.1%
- inhibition of growth at 10 µM [10]: 13.3%
- inhibition of growth at 10 µM [11]: 13.9%
- inhibition of growth at 10 µM [12]: 8.77%
- inhibition of growth at 10 µM [13]: 22.4%
- inhibition of growth at 10 µM [14]: 6.53%
- inhibition of growth at 10 µM [15]: 34.1%
- inhibition of growth at 10 µM [16]: 23.9%
- inhibition of growth at 10 µM [17]: 7.31%
- inhibition of growth at 10 µM [18]: 15.4%
- inhibition of growth at 10 µM [19]: 11.6%
- inhibition of growth at 10 µM [20]: 45.3%
- inhibition of growth at 10 µM [21]: 24.1%
- inhibition of growth at 10 µM [22]: 16.6%
- inhibition of growth at 10 µM [23]: 9.87%
- inhibition of growth at 10 µM [24]: 5.18%
- inhibition of growth at 10 µM [25]: 18.4%
- inhibition of growth at 10 µM [26]: 23.8%
- inhibition of growth at 10 µM [27]: 18.1%
- inhibition of growth at 10 µM [28]: 5.79%
- inhibition of growth at 10 µM [29]: 16.5%
- inhibition of growth at 10 µM [30]: 20.1%
- inhibition of growth at 10 µM [31]: 22.5%
- inhibition of growth at 10 µM [32]: 15.2%
- Ki [33]: 0.0601 µM
- inhibition of growth at 10 µM [34]: 14%
- inhibition of growth at 10 µM [35]: 8.33%
- inhibition of growth at 10 µM [36]: 12.9%
- inhibition of growth at 10 µM [37]: 14.2%
- inhibition of growth at 10 µM [38]: 39.8%
- inhibition of growth at 10 µM [39]: 14.6%
- inhibition of growth at 10 µM [40]: 23.1%
- inhibition of growth at 10 µM [41]: 26.7%
- inhibition of growth at 10 µM [42]: 20.2%
- inhibition of growth at 10 µM [43]: 10.3%
- inhibition of growth at 10 µM [44]: 16.4%
- inhibition of growth at 10 µM [45]: 23.7%
- inhibition of growth at 10 µM [46]: 27.9%
- inhibition of growth at 10 µM [47]: 18.5%
- inhibition of growth at 10 µM [48]: 11.8%
- inhibition of growth at 10 µM [49]: 19.1%
